The text below walks through data of patent publication US10711041B2, “Lyophilisate containing a cyclic peptide of formula X1-[sequence]-X2” (priority 2013, dated 2020).

The assay deals with donor lung of a pig. The assay can be described thus: Ex vivo lung perfusion (EVLP) of pig donor lungs simulating lung transplantation. The procedure: Brain-dead pigs were brought into back position and a vertical sternotomy was carried out. The pericardium and both pleural cavities were opened. The lower and upper cavial venes were embraced. An inflow catheter was inserted into the lung artery by means of a purse-string suture in the right ventricular discharging tract. An inflow occlusion was obtained by connecting the lower and upper cavial venes, discharge occlusion by stapling off the aorta. The lungs then were protected by a prophylactic rinsing with cold, isotonic conservation solution (50 ml per kg body weight of the pig, comprising potassium ions, sodium ions, magnesium ions, calcium ions, chloride ions, dextran, glucose, buffer ions) through the inflow catheter. Incision of the left heart tube yields discharge. The lungs were aerated during that time period with 50% oxygen and ice sludge was given into both pleural cavities and into the mediastinum.
The explanation technique in sum was the removal with heart and esophagus according to the following steps: • a) Dissection of the soft tissue bridges to the thoracic cavity at both sides of the trachea. • b) Transsection of both pulmonal ligaments (very deep, difficult exposure), then of VCI, of the low thoracic aorta ascendens, or the esophagus, respectively. • c) Blunt-separation of residual mediastinal adhesions. • d) Entire distension of the donor lung before the tracheal closure with a clip.
After explantation the lungs were winded into gauze, put into an ice bag, filled with low-potassium-dextran-extracellular solution and stored at 4° C. for 18 to 24 hours.
For the ex-vivo lung conditioning the EVLP-technique was used ([…]). […] During the EVLP the lung function may be assessed regularly regarding key indicators. […]
The processing of the donor lung from the pig was started with sewing on a funnel-shaped tube from Silastic with a pressure-monitored catheter, implemented into the left atrial cuff (LA), for openly splinting the LA and for maintaining a closed perfusion circulation. […]

Setting [1] is: inhalation 1 mg/kg, vs Water for Injection.

Bridges are numbered along the chain shown (N, C = ends). Where no end group is shown, it is not given here.

For the compound `C[C@@H]1NC(=O)CNC(=O)[C@H](CCC(=O)O)NC(=O)[C@@H]2CCCN2C(=O)[C@H]([C@@H](C)O)NC(=O)[C@H](CCC(=O)O)NC(=O)[C@H](CCCNC(=N)N)NC(=O)[C@H](CCC(N)=O)NC(=O)CNC(=O)[C@@H](N)CSSC[C@@H](C(=O)O)NC(=O)[C@H](Cc2ccc(O)cc2)NC(=O)[C@H](Cc2c[nH]c3ccccc23)NC(=O)[C@@H]2CCCN2C(=O)[C@H](CCCCN)NC(=O)[C@H](C)NC(=O)[C@H](CCC(=O)O)NC1=O` [SEQ ID NO: 1], under setting [1], the “arterio-venous pO2 difference ΔpO2” value is given as “improved” and the “dynamic lung conformity (compliance)” value is reported as “improved”. Turning to “Cyclo(CGQREAPAGAAAKPWYC) (disulfide 1-17) [SEQ ID NO: 7, reference compound]”, the “effects regarding the lung” value was “no improving effects”.
